Assay results from patent publication US11439641B2, “Pyrimidine JAK inhibitors for the treatment of skin diseases” (THERAVANCE BIOPHARMA R&D IP, LLC, priority 2019, dated 2022).

Experiments:
JAK3 = JAK3 (Homo sapiens (Human), UniProt P52333); test: Biochemical JAK and Tyk2 Kinase Assays (LanthaScreen), JAK3; conditions: 1.6 μM ATP (Km); pIC50 converted to pKi by Cheng-Prusoff
Experimental: (§1) Assay 1: Biochemical JAK and Tyk2 Kinase Assays
(§2) A panel of four LanthaScreen JAK biochemical assays (JAK1, 2, 3 and Tyk2) were carried in a common kinase reaction buffer (50 mM HEPES, pH 7.5, 0.01% Brij-35, 10 mM MgCl2, and 1 mM EGTA). Recombinant GST-tagged JAK enzymes and a GFP-tagged STAT1 peptide substrate were obtained from Life Technologies.
(§3) Serially or discretely diluted compounds were pre-incubated with each of the four JAK enzymes and the substrate in white 384-well microplates (Corning) at ambient temperature for 1 h. ATP was subsequently added to initiate the kinase reactions in 10 μL total volume, with 1% DMSO. The final enzyme concentrations for JAK1, 2, 3 and Tyk2 are 4.2 nM, 0.1 nM, 1 nM, and 0.25 nM respectively; the corresponding Km ATP concentrations used are 25 μM, 3 μM, 1.6 μM, and 10 μM; while the substrate concentration is 200 nM for all four assays. Kinase reactions were allowed to proceed for 1 hour at ambient temperature before a 10 μL preparation of EDTA (10 mM final concentration) and Tb-anti-pSTAT1 (pTyr701) antibody (Life Technologies, 2 nM final concentration) in TR-FRET dilution buffer (Life Technologies) was added. The plates were allowed to incubate at ambient temperature for 1 h before being read on the EnVision reader (Perkin Elmer). Emission ratio signals (520 nm/495 nm) were recorded and utilized to calculate the percent inhibition values based on DMSO and background controls.
(§4) For dose-response analysis, percent inhibition data were plotted vs. compound concentrations, and IC50 values were determined from a 4-parameter robust fit model with the Prism software (GraphPad Software). Results were expressed as pIC50 (negative logarithm of IC50) and subsequently converted to pKi (negative logarithm of dissociation constant, Ki) using the Cheng-Prusoff equation.

Aqueous Solubility Assay = conditions: PBS buffer pH 7.4; maximum upper limit 1,000 μM
Experimental: Assay 5: Aqueous Solubility Assay
The purpose of this assay was to quantify the solubility of test compounds in pH 4 and pH 7.4 PBS buffers. The assay required 40 μL of 10 mM DMSO test compound solution per desired buffer in addition to 20 μL required to make a test standard. For example, to test a compound in both buffers, 100 μL (2*40 μL+20 μL) of 10 mM DMSO compound stock solution was required.
The standard was created by diluting 20 μL of 10 mM DMSO compound stock solution into 180 μL of methanol and was shaken for five minutes to ensure solution uniformity. […] This 1,000 μM solution was run on an Agilent 1260 LC-MS system by injecting 2 μL in order to obtain the peak area. For the test solutions, 40 μL of 10 mM DMSO compound stock solution, per PBS buffer condition, were dried down into a powder overnight. Once in powder form, 400 μL of the desired PBS buffer was added to the powder and allowed to shake vigorously for four hours. The maximum theoretical concentration for this sample solution was 1,000 μM. After four hours of shaking, the samples were centrifuged for 10 minutes at 3,000 RPM before injecting 2 μL on the same Agilent 1260 LC-MS system to obtain the peak area.
In Table 6 below, A represents a value above 500, B represents a value between 250 and 500, C represents a value between 50 and 250, D represents a value between 10 and 50, and E represents a value below 10.

[1] = Solubility Assay in Organic Excipients; conditions: maximum upper limit 20,000 μM; for Solubility in MCT (mg/mL): medium chain triglycerides (MCT)
Experimental: Assay 6: Solubility Assay in Organic Excipients
The purpose of this assay was to quantify the solubility of test compounds in different organic excipients such as diisopropyl adipate, medium chain triglycerides (MCT), propylene glycol, and polyethylene glycol. The assay required 80 μL of 100 mM DMSO test compound solution per desired excipient in addition to 40 μL required to make a test standard.
The standard was created by diluting 40 μL of 100 mM DMSO compound stock solution into 160 μL of methanol and was shaken for five minutes to ensure solution uniformity. […] This 20,000 μM solution was run on an Agilent 1260 LC-MS system by injecting 0.2 μL in order to obtain the peak area. For the test solutions, 80 μL of 100 mM DMSO compound stock solution, per excipient, were dried down into a powder overnight. Once in powder form, 400 μL of the desired excipient was added to the powder and allowed to shake vigorously for four hours. The maximum theoretical concentration for this sample solution was 20,000 μM. After four hours of shaking, the samples were centrifuged for 10 minutes at 3,000 RPM before injecting 0.2 μL on the same Agilent 1260 LC-MS system to obtain the peak area.

JAK1 = JAK1 (Homo sapiens (Human), UniProt P23458); test: Biochemical JAK and Tyk2 Kinase Assays (LanthaScreen), JAK1; conditions: 25 μM ATP (Km); pIC50 converted to pKi by Cheng-Prusoff
JAK1, sequence (P23458 whole entry): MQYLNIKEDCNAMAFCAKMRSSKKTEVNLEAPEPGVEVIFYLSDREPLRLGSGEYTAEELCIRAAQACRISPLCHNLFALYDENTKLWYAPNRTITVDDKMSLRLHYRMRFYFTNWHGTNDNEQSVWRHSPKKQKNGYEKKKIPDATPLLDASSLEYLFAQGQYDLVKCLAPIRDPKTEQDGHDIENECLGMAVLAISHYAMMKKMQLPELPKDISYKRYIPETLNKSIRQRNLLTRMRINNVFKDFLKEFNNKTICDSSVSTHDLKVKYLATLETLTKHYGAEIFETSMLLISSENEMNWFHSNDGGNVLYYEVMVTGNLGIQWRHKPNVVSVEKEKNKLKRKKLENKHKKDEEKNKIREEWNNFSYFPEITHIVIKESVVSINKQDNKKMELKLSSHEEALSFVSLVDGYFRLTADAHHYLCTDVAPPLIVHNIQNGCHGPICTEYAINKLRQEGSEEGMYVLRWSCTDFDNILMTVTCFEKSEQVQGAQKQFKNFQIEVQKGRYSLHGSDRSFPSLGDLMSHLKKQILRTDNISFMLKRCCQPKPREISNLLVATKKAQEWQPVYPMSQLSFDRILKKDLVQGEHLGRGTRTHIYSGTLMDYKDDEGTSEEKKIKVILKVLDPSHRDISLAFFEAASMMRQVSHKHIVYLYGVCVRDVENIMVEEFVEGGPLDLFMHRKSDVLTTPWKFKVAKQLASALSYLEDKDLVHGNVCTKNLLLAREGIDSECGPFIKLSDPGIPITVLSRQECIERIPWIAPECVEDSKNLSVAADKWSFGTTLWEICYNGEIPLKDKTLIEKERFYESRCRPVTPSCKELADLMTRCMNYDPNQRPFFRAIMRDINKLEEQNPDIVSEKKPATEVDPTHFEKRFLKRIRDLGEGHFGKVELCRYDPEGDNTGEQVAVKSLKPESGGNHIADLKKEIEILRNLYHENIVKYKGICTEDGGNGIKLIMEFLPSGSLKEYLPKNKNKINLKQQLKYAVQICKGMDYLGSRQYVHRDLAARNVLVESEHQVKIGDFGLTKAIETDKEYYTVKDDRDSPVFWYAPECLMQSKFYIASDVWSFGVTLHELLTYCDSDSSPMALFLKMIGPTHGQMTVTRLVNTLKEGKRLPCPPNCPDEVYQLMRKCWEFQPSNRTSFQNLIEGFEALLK
Experimental: as §1, §2, §3, §4

[2] = test system: IL-2 stimulated pSTAT5 in Tall-1 T cells; test: Inhibition of IL-2 Stimulated pSTAT5 in Tall-1 T Cells; type: cell-based; conditions: Tall-1 human T cell line, IL-2 300 ng/mL, AlphaLisa
Experimental: Assay 2: Inhibition of IL-2 Stimulated pSTAT5 in Tall-1 T Cells
The potency of test compounds for inhibition of interleukin-2 (IL-2) stimulated STATS phosphorylation was measured in the Tall-1 human T cell line (DSMZ) using AlphaLisa. Because IL-2 signals through JAK1/3, this assay provides a measure of JAK1/3 cellular potency.
Phosphorylated STATS was measured via the AlphaLISA SureFire Ultra pSTAT5 (Tyr694/699) kit (PerkinElmer). Human T cells from the Tall-1 cell line were cultured in a 37° C., 5% CO2 humidified incubator in RPMI (Life Technologies) supplemented with 15% Heat Inactivated Fetal Bovine Serum (FBS, Life Technologies), 2 mM Glutamax (Life Technologies), 25 mM HEPES (Life Technologies) and 1× Pen/Strep (Life Technologies). Compounds were serially diluted in DMSO and dispensed acoustically to empty wells. Assay media (phenol red-free DMEM (Life Technologies) supplemented with 10% FBS (ATCC)) was dispensed (4 μL/well) and plates shaken at 900 rpm for 10 mins. Cells were seeded at 45,000 cells/well in assay media (4 μL/well), and incubated at 37° C., 5% CO2 for 1 hour, followed by the addition of IL-2 (R&D Systems; final concentration 300 ng/mL) in pre-warmed assay media (4 μL) for 30 minutes. After cytokine stimulation, cells were lysed with 6 ul of 3× AlphaLisa Lysis Buffer (PerkinElmer) containing 1× PhosStop and Complete tablets (Roche). The lysate was shaken at 900 rpm for 10 minutes at room temperature (RT). Phosphorylated STATS was measured via the pSTAT5 AlphaLisa kit (PerkinElmer). Freshly prepared acceptor bead mixture was dispensed onto lysate (51) under green filtered <100 lux light. Plates were shaken at 900 rpm for 2 mins, briefly spun down, and incubated for 2 hrs at RT in the dark. Donor beads were dispensed (5 μL) under green filtered <100 lux light. Plates were shaken at 900 rpm for 2 minutes, briefly spun down, and incubated overnight at RT in the dark. Luminescence was measured with excitation at 689 nm and emission at 570 nm using an EnVision plate r reader (PerkinElmer) under green filtered <100 lux light.
To determine the inhibitory potency of test compounds in response to IL-2, the average emission intensity of beads bound to pSTAT5 was measured in a human T cell line. IC50 values were determined from analysis of the inhibition curves of signal intensity versus compound concentration. Data are expressed as pIC50 (negative decadic logarithm IC50) values (mean±standard deviation).

JAK3, sequence (P52333 whole entry): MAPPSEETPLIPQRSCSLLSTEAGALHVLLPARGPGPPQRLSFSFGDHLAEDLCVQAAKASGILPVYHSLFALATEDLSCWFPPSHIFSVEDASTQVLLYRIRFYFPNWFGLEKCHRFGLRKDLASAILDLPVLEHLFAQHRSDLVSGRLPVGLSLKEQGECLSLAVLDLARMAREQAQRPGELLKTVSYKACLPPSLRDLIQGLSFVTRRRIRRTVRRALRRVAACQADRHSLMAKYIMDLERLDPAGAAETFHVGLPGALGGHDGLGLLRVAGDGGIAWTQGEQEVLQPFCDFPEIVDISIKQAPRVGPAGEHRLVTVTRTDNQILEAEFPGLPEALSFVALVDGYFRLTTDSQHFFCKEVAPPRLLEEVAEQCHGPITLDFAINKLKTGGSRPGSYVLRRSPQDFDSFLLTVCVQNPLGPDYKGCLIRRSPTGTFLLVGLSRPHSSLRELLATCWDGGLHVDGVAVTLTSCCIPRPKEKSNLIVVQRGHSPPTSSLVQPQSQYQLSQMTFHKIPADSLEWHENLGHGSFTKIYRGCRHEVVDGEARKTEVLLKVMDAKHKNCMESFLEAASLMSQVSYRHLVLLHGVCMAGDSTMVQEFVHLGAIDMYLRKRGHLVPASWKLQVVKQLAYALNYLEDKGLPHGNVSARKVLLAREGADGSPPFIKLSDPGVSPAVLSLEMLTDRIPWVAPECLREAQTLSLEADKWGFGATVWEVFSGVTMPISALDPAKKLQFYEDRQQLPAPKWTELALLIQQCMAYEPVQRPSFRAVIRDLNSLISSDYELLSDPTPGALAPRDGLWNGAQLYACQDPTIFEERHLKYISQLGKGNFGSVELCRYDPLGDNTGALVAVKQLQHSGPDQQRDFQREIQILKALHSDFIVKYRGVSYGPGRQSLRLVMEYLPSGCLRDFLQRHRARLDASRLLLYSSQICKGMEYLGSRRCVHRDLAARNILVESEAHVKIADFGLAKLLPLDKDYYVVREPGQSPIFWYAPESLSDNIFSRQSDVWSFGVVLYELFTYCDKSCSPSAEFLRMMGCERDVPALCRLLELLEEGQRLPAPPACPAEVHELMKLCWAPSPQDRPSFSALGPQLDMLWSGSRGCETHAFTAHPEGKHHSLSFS

Compound	JAK 3 (pKi) (JAK3)	Solubility at PH 7.4 (μmol) (Aqueous Solubility Assay)	Solubility in PEG400 (mg/mL) [1]	Solubility in Diisopropyl adipate (mg/mL) [1]	Solubility in MCT (mg/mL) [1]	Solubility in Propylene glycol (mg/mL) [1]	JAK 1 (pKi) (JAK1)	Tall-1 IL2 pSTAT5 (pIC50) [2]
Cc1cc(Nc2cc(C3CCOCC3)nc(N(C)[C@@H]3C[C@H]4CCC[C@@H](C3)N4C(=O)CC3CC3)n2)n[nH]1 [Compound 4, 2-cyclopropyl-1-((1R,3s,5S)-3-(methyl(4-((5-methyl-1H-pyrazol-3-yl)amino)-6-(tetrahydro-2H-pyran-4-yl)pyrimidin-2-yl)amino)-9-azabicyclo[3.3.1]nonan-9-yl)ethan-1-one]	B (B represents a pKi value between 9 and 10 (Ki between 1 nM and 0.1 nM))	E (E represents a value below 10)	C (C represents a value below 5)	C (C represents a value below 5)	C (C represents a value below 5)	C (C represents a value below 5)	A (A represents a pKi value ≥10 (Ki≤0.1 nM))	–
Cc1cc(Nc2cc(C3CCOC3)nc(N(C)[C@@H]3C[C@H]4CCC[C@@H](C3)N4C(=O)CC3CC3)n2)n[nH]1 (stereo partly drawn) [Compound 7, 2-cyclopropyl-1-((1R,3s,5S)-3-(methyl(4-((5-methyl-1H-pyrazol-3-yl)amino)-6-(tetrahydrofuran-3-yl)pyrimidin-2-yl)amino)-9-azabicyclo[3.3.1]nonan-9-yl)ethan-1-one]	C (C represents a pKi value between 8 and 9 (Ki between 10 nM and 1 nM))	E (E represents a value below 10)	–	–	–	–	A (A represents a pKi value ≥10 (Ki≤0.1 nM))	A (A represents a pIC50 value ≥8.0)
Cc1cc(Nc2cc(C3CCCO3)nc(N(C)[C@@H]3C[C@H]4CCC[C@@H](C3)N4CC(=O)N3CCCC3)n2)n[nH]1 (stereo partly drawn) [Compound 16, 2-((1R,3s,5S)-3-(methyl(4-((5-methyl-1H-pyrazol-3-yl)amino)-6-(tetrahydrofuran-2-yl)pyrimidin-2-yl)amino)-9-azabicyclo[3.3.1]nonan-9-yl)-1-(pyrrolidin-1-yl)ethan-1-one]	C (C represents a pKi value between 8 and 9 (Ki between 10 nM and 1 nM))	A (A represents a value above 500)	C (C represents a value below 5)	C (C represents a value below 5)	C (C represents a value below 5)	C (C represents a value below 5)	A (A represents a pKi value ≥10 (Ki≤0.1 nM))	–
CCS(=O)(=O)N1[C@@H]2CCC[C@H]1C[C@H](N(C)c1nc(Nc3cc(C)[nH]n3)cc(O[C@@H]3CCOC3)n1)C2 [Compound 18, N^2-((1R,3s,5S)-9-(ethylsulfonyl)-9-azabicyclo[3.3.1]nonan-3-yl)-N2-methyl-N4-(5-methyl-1H-pyrazol-3-yl)-6-(((R)-tetrahydrofuran-3-yl)oxy)pyrimidine-2,4-diamine]	B (B represents a pKi value between 9 and 10 (Ki between 1 nM and 0.1 nM))	D (D represents a value between 10 and 50)	B (B represents a value between 5 and 10)	B (B represents a value between 5 and 10)	C (C represents a value below 5)	B (B represents a value between 5 and 10)	A (A represents a pKi value ≥10 (Ki≤0.1 nM))	–
CCS(=O)(=O)N1[C@@H]2CCC[C@H]1C[C@H](N(C)c1nc(Nc3cc(C)[nH]n3)cc(O[C@H]3CCOC3)n1)C2 [Compound 33, N^2-((1R,3s,5S)-9-(ethylsulfonyl)-9-azabicyclo[3.3.1]nonan-3-yl)-N2-methyl-N4-(5-methyl-1H-pyrazol-3-yl)-6-(((S)-tetrahydrofuran-3-yl)oxy)pyrimidine-2,4-diamine]	B (B represents a pKi value between 9 and 10 (Ki between 1 nM and 0.1 nM))	D (D represents a value between 10 and 50)	B (B represents a value between 5 and 10)	C (C represents a value below 5)	C (C represents a value below 5)	A (A represents a value above 10)	A (A represents a pKi value ≥10 (Ki≤0.1 nM))	–
Cc1cc(Nc2cc(OCC3COC3)nc(N(C)[C@@H]3C[C@H]4CCC[C@@H](C3)N4C(=O)CC3CC3)n2)n[nH]1 [Compound 40, 2-cyclopropyl-1-((1R,3s,5S)-3-(methyl(4-((5-methyl-1H-pyrazol-3-yl)amino)-6-(oxetan-3-ylmethoxy)pyrimidin-2-yl)amino)-9-azabicyclo[3.3.1]nonan-9-yl)ethan-1-one]	B (B represents a pKi value between 9 and 10 (Ki between 1 nM and 0.1 nM))	D (D represents a value between 10 and 50)	–	–	–	–	A (A represents a pKi value ≥10 (Ki≤0.1 nM))	A (A represents a pIC50 value ≥8.0)
CCS(=O)(=O)N1[C@@H]2CCC[C@H]1C[C@H](N(C)c1nc(Nc3cc(C)[nH]n3)c(F)c(C3CCOC3)n1)C2 (stereo partly drawn) [Compound 44, N2-((1R,3s,5S)-9-(ethylsulfonyl)-9-azabicyclo[3.3.1]nonan-3-yl)-5-fluoro-N2-methyl-N4-(5-methyl-1H-pyrazol-3-yl)-6-(tetrahydrofuran-3-yl)pyrimidine-2,4-diamine]	C (C represents a pKi value between 8 and 9 (Ki between 10 nM and 1 nM))	E (E represents a value below 10)	–	–	–	–	A (A represents a pKi value ≥10 (Ki≤0.1 nM))	–
CCC(=O)N1[C@@H]2CCC[C@H]1CC(N(C)c1nc(Nc3cc(C)[nH]n3)cc(OC3CCOC3)n1)C2 (stereo partly drawn) [Compound 46, 1-((1R,3s,5S)-3-(methyl(4-((5-methyl-1H-pyrazol-3-yl)amino)-6-((tetrahydrofuran-3-yl)oxy)pyrimidin-2-yl)amino)-9-azabicyclo[3.3.1]nonan-9-yl)propan-1-one]	B (B represents a pKi value between 9 and 10 (Ki between 1 nM and 0.1 nM))	D (D represents a value between 10 and 50)	–	–	–	–	A (A represents a pKi value ≥10 (Ki≤0.1 nM))	A (A represents a pIC50 value ≥8.0)
